Consider three compounds from patent publication US8486991B2, “Enantiomerically pure phosphoindoles as HIV inhibitors” (Idenix Pharmaceuticals, Inc., priority 2006, dated 2013).

Molecules are shown by their SMILES. Read-outs that look alike come from different tables or passages of the source. Where only a bound is given, the exact number is not on record here.

One data set deals with HIV-1 IIIB in U937 cells. Kind of data set: Drug susceptibility assay, IIIB in U937 cells. Type of data set: cell-based. To be noted: Human immunodeficiency virus 1, IIIB. The text has this:
(§1) The virus and host-cell dependency of Compound I, Compound III and control drugs was further examined in drug susceptibility assays performed across 3 different subtype B wild-type HIV-1 strains and 5 different cell lines.

The subject of the next data set is HIV-1 IIIB in H9 cells. The data set can be described thus: Drug susceptibility assay, IIIB in H9 cells. Type of data set: cell-based. To be noted: Human immunodeficiency virus 1, IIIB.
Description: as §1

Another data set deals with HIV-1 NL4-3 K103N virus. Kind of data set: microbe, parasite or virus in culture. To be noted: for EC50: Human immunodeficiency virus 1, NL43, MT4, read-out: Average EC50 Values ± Standard Deviation, K103N; for Fold Change, K103N: Table 11, NL4-3. Type of data set: cell-based.
The target in data set [1] is site-directed mutant HIV-1 RT enzymes. Kind of data set: HIV-1 RT enzyme assay, whole panel (ranges). Type of data set: biochemical. As to conditions: for IC50: Table 3, range over W.T. and 7 mutant enzymes; for Mean Activity Range (fold-resistance): Table 4, range of fold changes over the panel. From the text: In Vitro Antiviral Activity Against Additional Mutant HIV RT Enzymes
The studies are summarized in the text that follows.

Data set [2] concerns HIV-1 IIIB in MOLT-4 cells. The data set can be described thus: Drug susceptibility assay, IIIB in MOLT-4 cells. As to conditions: Human immunodeficiency virus 1, IIIB. Type of data set: cell-based.
Description: as §1

Data set [3] relates to HIV-1 BH10 wild-type virus. Kind of data set: CPE / cell protection assay, MT-4 cells, BH10 wild-type. The class given is cell-based. To be noted: for EC50: Human immunodeficiency virus 1, MT4; for Fold Change, W.T.: Table 9, CPE. Here is the method: The activity of the compounds was also assessed with the same virus and cell type using a different assay readout based on cytopathic effect (CPE).
MT-4 cells (Source: NIH Catalog #120) were seeded onto 96-well cell culture plates (1×10^4 cells per well in 50 μL).
The final DMSO concentration in the assay was 0.5% in 120 μL. Cell cultures were then incubated at 37° C./5% CO2 for 4 days. Then, Cell Titer 96 AQueous One Solution Cell Proliferation Assay (Promega) was used to measure cell viability. Briefly, the One Solution Reagent was added directly to culture wells (20 μL/well), incubated for 5 hours, and the absorbance was recorded at 492 nm using the Sunrise Tecan Spectrophotometer.
The EC50 values were determined from the percent inhibition versus concentration data using a sigmoidal non-linear regression analysis based on four parameters with Tecan Magellan software.

The subject of a further data set is HIV-1 BH10 in U937 cells. Kind of data set: Drug susceptibility assay, BH10 in U937 cells. The class given is cell-based.
Description: as §1

Data set [4] concerns HIV-1 IIIB K103R/V179D/P225H triple mutant virus. Kind of data set: microbe, parasite or virus in culture. The class given is cell-based. As to conditions: for EC50: Human immunodeficiency virus 1, IIIB; for Fold Change, K103R/V179D/P225H: Table 16, IIIB. The procedure: (§2) The test articles were next profiled against a panel of HIV-1 IIIB laboratory cultivated mutants as summarized in the text below. Antiviral efficacy was determined via a CPE assay with an MTS read-out for cell viability.

For a further data set, the system named is HIV-1 IIIB w.t. virus. Kind of data set: microbe, parasite or virus in culture. The class given is cell-based. To be noted: for Fold Change, W.T.: Table 16. Here is the method: as §2
In data set [5] the test system is 9 different HIV-1 subtypes (A, B, C, D, F1, G, H, AE, AG), 18 viruses. Kind of data set: PhenoSense testing, HIV-1 subtype panel. Type of data set: cell-based. To be noted: Human immunodeficiency virus 1, read-out: potency range, panel of 9 different HIV-1 subtypes. The text has this: The activities of the test and control compounds were next tested against a subtype panel which covers all major HIV-1 subtypes or clades (A, B, C, D, F1, G, H, AE and AG). This panel was part of a 64 virus panel selected from the large library of clinical isolates Monogram BioSciences (formerly ViroLogics). Each of the subtypes in the panel was represented by 2 distinct viruses which share many sequence similarities, but also some key differences and therefore could respond differently to one or more of the drugs included in this study.

The nature of data set [6]: Longer term cytotoxicity, 12 days, MTS, HuH7. As to conditions: human.
The next data set has as its system HIV-2 ROD. Kind of data set: HIV-2 ROD WT in H9 cell assay. The class given is cell-based. Here is the method:
The susceptibility of HIV type 2 ROD in H9 cells to Compound I and Compound III was determined against zidovudine (AZT) as a control.

A further data set addresses CYP2C19 (Homo sapiens, UniProt P33261). The data set can be described thus: Human liver microsomal CYP450 inhibition, CYP2C19. As to conditions: for IC50, CYP2C19: human liver microsomes. On the technique in general: Microsomes from liver hold many membrane-bound enzymes, among them those of drug oxidation.
The test system of data set [7] is EFV resistant, NNRTI resistant, NRTI and PI mutant HIV-1 viruses. Type of data set: cell-based. As to conditions: for activity against EFV resistant viruses compared with EFV: including double and triple mutants.
Data set [8] in a line: Plasma protein binding by equilibrium dialysis, monkey. The class given is in vitro ADME. The procedure:
The in vitro plasma protein binding of compound I and compound III in rat, dog, monkey and human plasma was determined by equilibrium dialysis. Protein binding was assessed by equilibrium dialysis using rat, dog, monkey and human plasma. Samples were assayed by HPLC with LC-MS/MS detection. Plasma protein binding was high (>99%) for all species and for both compounds.

[9] abbreviates: U-937, Table 17, read-out: Average EC50 Values ± Standard Deviation, host U937, virus IIIB.
Where [10] appears, read: H9, Table 17, read-out: Average EC50 Values ± Standard Deviation, host H9, virus IIIB.
Where [11] appears, read: MOLT-4, Table 17, read-out: Average EC50 Values ± Standard Deviation, host MOLT-4, virus IIIB.
[12] abbreviates: Table 8, CPE readout, read-out: Average EC50 Values ± Standard Deviation, W.T.
Setting [13] is: range over the three agents, read-out: mean EC50 values, WT BH10 virus, CPE assay.
The mark [14] stands for this setting: Human immunodeficiency virus 1, U-937, Table 17, read-out: Average EC50 Values ± Standard Deviation, host U937, virus BH10.
The mark [15] stands for this setting: MT4, read-out: Average EC50 Values ± Standard Deviation, K103R/V179D/P225H.
The mark [16] stands for this setting: MT4, read-out: EC50, K103R/V179D/P225H triple mutant virus.
The mark [17] stands for this setting: Table 18, highest concentration assayed 1.25 μM.
[18] abbreviates: Cell Protection Assay tables, unit inferred, read-out: EC50, BH10.
The mark [19] stands for this setting: Human immunodeficiency virus 1, MT4, Table 15, IIIB, CPE, read-out: Average EC50 Values ± Standard Deviation, W.T.

Chain of CYP2C19 (P33261 whole entry): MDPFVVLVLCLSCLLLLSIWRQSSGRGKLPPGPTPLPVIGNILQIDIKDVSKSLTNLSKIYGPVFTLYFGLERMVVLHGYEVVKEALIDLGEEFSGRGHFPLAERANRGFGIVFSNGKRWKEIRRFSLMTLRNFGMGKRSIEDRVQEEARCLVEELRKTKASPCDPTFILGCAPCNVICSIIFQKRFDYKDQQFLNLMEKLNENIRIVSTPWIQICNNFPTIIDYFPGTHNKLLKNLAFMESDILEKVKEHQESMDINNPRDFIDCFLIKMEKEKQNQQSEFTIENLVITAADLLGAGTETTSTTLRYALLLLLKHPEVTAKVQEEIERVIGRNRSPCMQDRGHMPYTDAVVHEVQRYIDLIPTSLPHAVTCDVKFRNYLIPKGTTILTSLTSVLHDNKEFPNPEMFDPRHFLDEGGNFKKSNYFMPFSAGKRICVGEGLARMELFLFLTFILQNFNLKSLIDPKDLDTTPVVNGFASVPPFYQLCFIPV

As usually defined, the IC50 is the concentration that inhibits the measured activity by half. The CC50 is the concentration at which the toxic effect on the cells reaches its halfway point. Take `O=C1Nc2ccc(Cl)cc2C(C#CC2CC2)(C(F)(F)F)O1` (centres unmarked) [EFV, 6-chloro-4-cyclopropylethynyl-4-trifluoromethyl-1,4-dihydro-2H-3,1-benzoxazin-2-one, reference compound]: the EC50 with HIV-1 IIIB in U937 cells (setting [9]) was 1.5 ± 0.8 nM; in the data set with HIV-1 IIIB in H9 cells (setting [10]) it was 1.5 ± 0.6 nM; in the data set on HIV-1 NL4-3 K103N virus it was 61.2 ± 33.8 nM; in data set [2] (setting [11]), 0.9 ± 0.2 nM; in data set [3] (setting [12]) it was 0.6 ± 0.1 nM; in [3] (setting [13]), 0.1 to 0.7 nM. The EC50 was 1.9 ± 0.8 nM with HIV-1 BH10 in U937 cells (setting [14]); greater than 1000 nM in [4] (setting [15]); greater than 1000 nM in [4] (setting [16]); 1.5 ± 0.6 nM in the data set on HIV-1 IIIB w.t. virus (Human immunodeficiency virus 1, IIIB, MT4, read-out: Average EC50 Values ± Standard Deviation, W.T.); 0.4 to 3.1 nM in data set [5]. This compound registered an IC50 in [1] of no less than 20 nM. In [6] (HuH7 liver cells), this compound displayed a CC50 at 12 days of 75700 ± 12400 nM.
Turning to `CO[P@](=O)(c1cc(C)cc(/C=C/C#N)c1)c1c(C(N)=O)[nH]c2ccc(Cl)c(F)c12` [Compound I, (2-Carbamoyl-5-chloro-4-fluoro-1H-indol-3-yl)-[3-((E)-2-cyano-vinyl)-5-methyl-phenyl]-(R)-phosphinic acid methyl ester], the EC50 in the data set on HIV-2 ROD (Human immunodeficiency virus 2, H9, read-out: EC50 Values) was greater than 1250 nM; in the data set on HIV-1 IIIB in U937 cells (U-937, read-out: Average EC50 Values ± Standard Deviation, host U937, virus IIIB), 0.5 ± 0.1 nM; with HIV-1 IIIB in H9 cells (H9, read-out: Average EC50 Values ± Standard Deviation, host H9, virus IIIB), 0.6 ± 0.1 nM; with HIV-1 NL4-3 K103N virus, 1.4 ± 0.4 nM; in data set [2] (MOLT-4, read-out: Average EC50 Values ± Standard Deviation, host MOLT-4, virus IIIB) it was 0.7 ± 0.1 nM; in data set [3] (setting [18]) it was 0.28 ± 0.072 nM. For the same compound, the EC50 in [3] (setting [12]) was 0.3 ± 0.1 nM; in data set [3] (setting [13]), 0.1 to 0.7 nM; in the data set with HIV-1 BH10 in U937 cells (Human immunodeficiency virus 1, U-937, read-out: Average EC50 Values ± Standard Deviation, host U937, virus BH10), 0.6 ± 0.2 nM; in [4] (setting [15]) it was 10 ± 1.5 nM; in data set [4] (setting [16]) it was 10 nM; in the data set on HIV-1 IIIB w.t. virus (setting [19]) it was 1 ± 0.4 nM. The EC50 in [5] was 0.25 to 3.2 nM. For the same compound, in the data set with HIV-2 ROD (setting [17]), the “EC50 Values” is “failed to suppress HIV-2 ROD replication”. Further, the half-maximal inhibitory concentration (IC50) against CYP2C19 was 10200 nM; in data set [1], 160 to 4670 nM. Besides, on CYP2C19, the “IC50, CYP2C19” value is “not observed”. Moreover, the “activity against sub-panel of mutants bearing NRTI and PI mutations” value in data set [7] is “highly active”. In addition, the “potency relative to Compound III against EFV resistant viruses with double and triple mutants” value in data set [7] is listed as 2-3. Further, the “activity against EFV resistant viruses compared with EFV” value in data set [7] is “superior to EFV”. Also, the “Percentage Plasma Protein Binding, Monkeys” value in data set [8] is listed as 99.9%. Moreover, the “Fold Change, K103N” value in the data set with HIV-1 NL4-3 K103N virus was 0.7 ± 0.2 fold. In addition, the “Mean Activity Range (fold-resistance)” value in data set [1] fell in the range of 0.5 to 15.5 µM. The “Fold Change, W.T.” value (in data set [3]; in the data set on HIV-1 IIIB w.t. virus (IIIB)) was 1 fold in each case. In addition, the “Fold Change, K103R/V179D/P225H” value is recorded as 11.1±4.1 fold in data set [4] and 11.1 ± 4.1 fold in [4] (listed as Cmpd. I). Moreover, the CC50 at 12 days in [6] was determined as 23500 ± 1610 nM.
As for `CO[P@](=O)(c1cc(C)cc(/C=C/C#N)c1)c1c(C(N)=O)[nH]c2ccc(Cl)cc12` [Compound III, (2-Carbamoyl-5-chloro-1H-indol-3-yl)-[3-((E)-2-cyano-vinyl)-5-methyl-phenyl]-(R)-phosphinic acid methyl ester], the EC50 with HIV-2 ROD (Human immunodeficiency virus 2, H9, Table 18, highest concentration assayed 1.25 μM, read-out: EC50 Values) is greater than 1250 nM; with HIV-1 IIIB in U937 cells (setting [9]) it was 0.5 ± 0.1 nM; in the data set with HIV-1 IIIB in H9 cells (setting [10]) it was 0.5 ± 0.2 nM; in the data set with HIV-1 NL4-3 K103N virus it was 1.5 ± 0.3 nM; in data set [2] (setting [11]) it was 0.6 ± 0.1 nM; in data set [3] (setting [18]), 0.15 ± 0.11 nM. Also, the EC50 in data set [3] (setting [12]) is 0.2 ± 0.1 nM; in [3] (setting [13]), 0.1 to 0.7 nM; in the data set with HIV-1 BH10 in U937 cells (setting [14]) it was 1.3 ± 0.6 nM; in data set [4] (setting [15]) it was 25 ± 6 nM; in data set [4] (setting [16]), 21 to 25 nM; in the data set with HIV-1 IIIB w.t. virus (setting [19]), 0.5 ± 0.1 nM. In addition, in data set [5], the EC50 was in the range of 0.2 to 2.14 nM. The “EC50 Values” in the data set on HIV-2 ROD (setting [17]) is “failed to suppress HIV-2 ROD replication”. Further, the IC50 was 10200 nM against CYP2C19 and 130 to 2990 nM in [1]. At CYP2C19, the “IC50, CYP2C19” value is “not observed”. In addition, the “activity against sub-panel of mutants bearing NRTI and PI mutations” value in data set [7] is “highly active”. The “activity against EFV resistant viruses compared with EFV” value in data set [7] is recorded as “superior to EFV”. In addition, in data set [8], the “Percentage Plasma Protein Binding, Monkeys” value was found to be 99.9%. Besides, in the data set with HIV-1 NL4-3 K103N virus, the “Fold Change, K103N” value is reported as 0.9 ± 0.2 fold. The “Mean Activity Range (fold-resistance)” value in data set [1] is 0.6 to 13.7 µM. Moreover, the “Fold Change, W.T.” value (in data set [3]; in the data set with HIV-1 IIIB w.t. virus (IIIB)) was 1 fold throughout. Moreover, the “Fold Change, K103R/V179D/P225H” value in data set [4] is given as 53.5±12.8 fold; in data set [4] (listed as Cmpd. III) it was 53.5 ± 12.8 fold. Further, the midpoint of cytotoxicity in data set [6] (HuH7 liver cells), the CC50 at 12 days, lay at 31500 ± 3370 nM.
